Laboratory results: ChEMBL document CHEMBL1201862, “PubChem BioAssay data set” (2004)
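Values below derive from 48-hour exposures of cells grown in 96-well plates, with endpoints linearly interpolated between the two concentrations bracketing the appropriate inhibition level. Abbreviation: GI50, concentration required for 50% inhibition of growth.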 Active and inactive are the calls of the source. Rule as the data show it: active = GI50 up to about 1.1 µM and inactive = higher.

How the values were obtained:
Test in all cases: DTP human tumour cell line panel, 48 h
[1] = test system: MOLT-4
[2] = test system: SN12C
[3] = test system: 786-0
[4] = test system: OVCAR-3
[5] = test system: EKVX
[6] = test system: A498
[7] = test system: OVCAR-5
[8] = test system: TK-10
[9] = test system: SK-MEL-5
[10] = test system: UO-31
[11] = test system: UACC-257
[12] = test system: UACC-62
[13] = test system: SK-MEL-2
[14] = test system: MDA-MB-231
[15] = test system: HOP-62
[16] = test system: HT-29
[17] = test system: A549
[18] = test system: K562
[19] = test system: M14
[20] = test system: SF-539
[21] = test system: Hs-578T
[22] = test system: SK-MEL-28
[23] = test system: NCI-H226
[24] = test system: MDA-MB-435
[25] = test system: OVCAR-8
[26] = test system: ACHN
[27] = test system: NCI-H460
[28] = test system: NCI/ADR-RES
[29] = test system: SK-OV-3
[30] = test system: HCT-116
[31] = test system: HCT-15
[32] = test system: CAKI-1
[33] = test system: NCI-H23
[34] = test system: COLO 205
[35] = test system: KM12
[36] = test system: BT-549
[37] = test system: CCRF-CEM
[38] = test system: SF-295
[39] = test system: IGROV-1
[40] = test system: RXF 393
[41] = test system: MDA-N
[42] = test system: SR
[43] = test system: HCC 2998
[44] = test system: HL-60
[45] = test system: SNB-19
[46] = test system: Malme-3M
[47] = test system: HOP-92
[48] = test system: PC-3
[49] = test system: OVCAR-4
[50] = test system: MCF7
[51] = test system: LOX IMVI
[52] = test system: U-251
[53] = test system: SW-620
[54] = test system: SNB-75
[55] = test system: DU-145
[56] = test system: SF-268
[57] = test system: T47D
[58] = test system: RPMI-8226

Measured: GI50

Cc1ccc(S(=O)(=O)N/N=C2/C(=O)Nc3c(Cl)cc(Cl)cc32)cc1
68.9 µM: [31]
inactive: [1] 38.5 µM | [2] > 100 µM | [3] > 100 µM | [4] 60.3 µM | [5] 5.52 µM | [6] 55.5 µM | [7] > 100 µM | [8] 79.1 µM | [9] 59.6 µM | [10] 41.6 µM | [11] > 100 µM | [12] 62.5 µM | [13] > 100 µM | [14] > 100 µM | [15] > 100 µM | [16] 39.1 µM | [17] 67.5 µM | [18] 72.1 µM | [19] 73.5 µM | [20] 66.1 µM | [21] 76.6 µM | [22] > 100 µM | [23] > 100 µM | [24] 51.6 µM | [25] 38.8 µM | [26] > 100 µM | [27] 44.2 µM | [28] 40 µM | [29] > 100 µM | [30] 44.3 µM | [32] 59.4 µM | [33] 63.1 µM | [34] 68.7 µM | [35] > 100 µM | [36] 86.7 µM | [37] 55.6 µM | [38] 35.8 µM | [39] 32.2 µM | [40] 43.3 µM | [41] 68.9 µM | [42] 34.4 µM | [43] 75.9 µM | [44] 36.9 µM | [45] > 100 µM | [46] 91.4 µM | [47] > 100 µM | [48] 78.3 µM | [49] > 100 µM | [50] 75 µM | [51] 37.8 µM | [52] 58.1 µM | [53] 99.1 µM

N#C/C(=C/NC(=S)c1ccncc1)C(N)=O
> 100 µM: [31]
inactive: [1] > 100 µM | [2] > 100 µM | [3] > 100 µM | [4] > 100 µM | [5] > 100 µM | [54] > 100 µM | [6] > 100 µM | [7] > 100 µM | [8] > 100 µM | [9] > 100 µM | [10] > 100 µM | [11] > 100 µM | [12] > 100 µM | [13] > 100 µM | [14] > 100 µM | [15] > 100 µM | [16] > 100 µM | [17] > 100 µM | [19] > 100 µM | [20] > 100 µM | [22] > 100 µM | [23] > 100 µM | [55] > 100 µM | [56] > 100 µM | [24] > 100 µM | [25] > 100 µM | [26] > 100 µM | [27] > 100 µM | [28] > 100 µM | [29] > 100 µM | [30] > 100 µM | [32] > 100 µM | [57] > 100 µM | [33] > 100 µM | [34] > 100 µM | [35] > 100 µM | [36] > 100 µM | [38] > 100 µM | [39] > 100 µM | [40] > 100 µM | [41] > 100 µM | [43] > 100 µM | [44] > 100 µM | [45] > 100 µM | [47] > 100 µM | [49] > 100 µM | [50] > 100 µM | [51] > 100 µM | [52] > 100 µM | [53] > 100 µM

O=c1cc(CSc2c(-c3ccccc3)c(=O)n(-c3ccccc3)c(=S)n2-c2ccccc2)[nH]c(=O)[nH]1
> 100 µM: [31]
inactive: [1] > 100 µM | [2] > 100 µM | [3] > 100 µM | [4] > 100 µM | [5] > 100 µM | [54] > 100 µM | [6] > 100 µM | [7] > 100 µM | [8] > 100 µM | [9] > 100 µM | [58] > 100 µM | [10] > 100 µM | [11] > 100 µM | [12] > 100 µM | [13] > 100 µM | [14] > 100 µM | [15] > 100 µM | [16] > 100 µM | [17] > 100 µM | [18] > 100 µM | [19] > 100 µM | [20] > 100 µM | [22] > 100 µM | [55] > 100 µM | [56] > 100 µM | [24] > 100 µM | [25] > 100 µM | [26] > 100 µM | [27] > 100 µM | [28] > 100 µM | [29] > 100 µM | [30] > 100 µM | [32] > 100 µM | [57] > 100 µM | [34] > 100 µM | [35] > 100 µM | [36] > 100 µM | [37] > 100 µM | [39] > 100 µM | [40] > 100 µM | [41] > 100 µM | [42] > 100 µM | [43] > 100 µM | [44] > 100 µM | [45] > 100 µM | [48] > 100 µM | [50] > 100 µM | [52] > 100 µM | [53] > 100 µM
